According to patent EP0151577B1 (priority 1983, dated 1984):

Key:
[1] = test system: cellules des neuroblastomes; assay: Inhibition of serotonin incorporation into neuroblastoma cells in vitro; assay type: cell-based; details: 0°C
souris [2] = assay: General pharmacological profile: spontaneous motor activity; assay type: in vivo; details: souris
From the text: Activite motrice spontanée: MODIGH, K., Central and peripheral effects of 5-hydroxytryptophan on motor activity in mice. Psychopharmacologia (Berlin), 23, 48, 1972. Cadence respiratoire: […], S., and VALZELLI, L. Serotonin and cardiovascular system, Chapter 9, in "Serotonin", Elsevier Publ. Co. Amsterdam 1965.

[3] = Solubility in water and organic solvents; assay type: physicochemical
From the text: II est insoluble dans le benzene, l'acetate d'ethyle et le chloroforme.

Rythme cardiaque = assay: Cardiovascular activity: heart rate; assay type: in vivo
From the text: (§1) Le protocole experimental était celui décrit dans "Sugar Derivatives of Indolamines. part V: Cardiovascular Effects and "Anti-stress" Activity of Desoxyfructose Derivative of Serotonin and 5-Metho-xy- tryptamin", L. Mester, M. Mester, K.P. Bhargava, C. Labrid, G. Dureng and M. Cheucle, THROMBOSIS […], 15,245,1979.

[4] = Acute toxicity in the mouse, DL50 i.v. (Behrens-Karber); details: in vivo, iv, souris, survivors checked 15 days after administration, read-out: DL 50 i.v.
From the text: D'autres études pharmacologiques ont été entreprises, en particulier pour apprécier la toxicite aigue chez la souris. Les divers produits étudiés sont administrés a doses croissantes en progression arithmetique a des lots de 5 souris femelles SWISS, EOPS, NMRI/Han pesant 23 a 24 g.
Les produits sont solubilises dans I'eau distillée. Les DL 50 sont calculées par la méthode de BEHRENS (B.) et KARBER (C.). Le nombre d'animaux survivants dans les differents lots est vérifié 15 jours après I'administration des produits. La toxicité aigue (DL 50) exprimée en g/kg est supérieure a 5, avec la voie d'administration i.v. pour le DF-5HTP un produit représentatif selon l'invention.

[5] = test system: 5-HT (dans tout le cerveau); assay: Amount of serotonin (5-HT) in whole brain, spectrophotofluorometric; assay type: in vivo, souris
From the text: Les quantités de sérotonine ont été estimees par une méthode spectrophotofluorométrique, telle que décrite par Solomon et al. Biochem. Pharmacology 14, 831 (1965). Les résultats de ces essais sont rassemblés dans le Tableau 10 ci-après.
• * Chaque valeur représente la moyenne de quatre animaux d'experience (souris) • ** La concentration de 5-HT est exprimée par gramme de tissu frais (cerveau).

rat = assay: Anti-stress activity: restraint ulcer in the rat; assay type: in vivo; details: 174 mg/kg i.p.
From the text: BONFILS, S., LIEFOOGHE, GK, ROSSI, G. and LAMBLING, A. L'ulcère de contrainte du Rat blanc. Modifications de la fréquence lesionnelle par différents precedes opératoires et pharmacodynamiques. C.R. Soc. Biol., 151, 1149, 1957.
BONFILS, S., ROSSI, G., LIEFOOGHE, G. and LAMBLING, A., Ulcère experimental de contrainte, I. Méthodes, fréquence des lesions, modifications par certains precedes techniques et pharmacologiques. Rev. franç. Etudes clin. biol., 4,146, 1959.

[6] = test system: réponse à l'obstruction de la carotide; assay: Cardiovascular activity: response to carotid occlusion (CO); assay type: in vivo
From the text: as §1

souris [7] = assay: Pentobarbital sleeping time; assay type: in vivo
Method: (§2) Les mesures ont été faites a 15, 30 et 60 minutes après I'administration par voie intrapéritonéale (i.p.) a des souris.

souris [8] = assay: Rotarod test
Method: as §2

souris [9] = assay: Tremor score in mice pretreated with a MAO inhibitor (Harmaline); assay type: in vivo; details: for Score total (tremblements): Harmaline pretreatment, 5 souris
Method: Les conditions expérimentales étaient les suivantes:
Chez des souris prétraitées par un inhibiteur de la MAO (Harmaline 25 mg/kg/ P.O.), I'injection de 5HTP (1 heure après l'IMAO) entraîne l'apparition de tremblements plus ou moins généralisés, accompagnés ou non d'hyperactivité motrice et qui sont dus a I'accumulation de sérotonine non dégradée au niveau des récepteurs post-synaptiques cérébraux. On peut établir pour chaque souris une cotation chiffrée suivant l'intensité des symptômes observes au cours du temps (cotation toutes les 5 min. entre la 5ème et la 45ème min. après I'injection de 5 HTP puis toutes les 15 min. jusqu'à la 75ème min.).
On additionne en une score total tous les chiffres obtenus aux différents temps sur des lots de 5 ou 10 souris.
Les actions du 5 HTP ont été comparées a celles du DF-5HTP.

souris [10] = assay: Anticonvulsant activity, MES; assay type: in vivo
From the text: Activite anticonvulsivante (MES): % de protection Temps de sommeil au pentobarbital: WYATT, R.J., ZARKONE, V. […], K., DEMENT, W.C., SMYDER, F. and SJOERDSMA, A., Effects of 5-Hydroxytryptophan on the sleep of normal human subjects. Electroencephaly and Clinical Neurophysiology 30, 5051971.

[11] = 10 mg par voie cérébroventriculaire
[12] = 100 mg/kg (ip), 15 min, Tableau 2

SMILES: O=C(O)C(Cc1c[nH]c2ccc(O)cc12)NCC1(O)OCC(O)C(O)C1O (stereo not shown) [DF-5HTP, N-1-desoxyfructo-5-hydroxytryptophane]
- % Inhibition à 0°C de l'incorporation de la sérotonine dans les cellules nerveuses [1]: 50%
- Activité motrice spontanée (souris [2]; 100 mg/kg (ip), Tableau 2): légère augmentation
- Activité motrice spontanée (souris [2]; 174 mg/kg (ip)): augmentation
- solubilité dans le benzene, l'acetate d'ethyle et le chloroforme ([3]; benzene, acetate d'ethyle, chloroforme): insoluble
- soluble dans I'eau ([3]; eau): facilement soluble
- Rythme cardiaque Durée (min) (Rythme cardiaque; [11]): non mani-festée à 150
- Rythme cardiaque Mesure à (Rythme cardiaque; [11]): 30 min
- Rythme cardiaque Pic (Rythme cardiaque; [11]): 75 min
- Rythme cardiaque Durée (Rythme cardiaque; 100 mg par voie intraveineuse): 45 min
- Rythme cardiaque Mesure à (Rythme cardiaque; 100 mg par voie intraveineuse): 5 min
- Rythme cardiaque Pic (Rythme cardiaque; 100 mg par voie intraveineuse): 10 min
- LD50 at 360 h [4]: > 5000 mg/kg
- Quantités de 5-HT (dans tout le cerveau) ([5]; 100 mg/kg i.p., 15 min., Solution Saline 60,0, mean of 4 souris): 87,5
- Quantités de 5-HT (dans tout le cerveau) ([5]; 174 mg/kg i.p., 15 min., Solution Saline 60,0, mean of 4 souris): 75,0
- Quantités de 5-HT (dans tout le cerveau) ([5]; 174 mg/kg i.p., 30 min., par gramme de tissu frais, Solution Saline 107): 200,4
- Quantités de 5-HT (dans tout le cerveau) ([5]; 174 mg/kg i.p., 60 min., par gramme de tissu frais, Solution Saline 100): 160,8
- Effet anti-ulcère chez le rat (18 heures sous contrainte) Indice d'Ul-cération (rat; témoin 34): 10^**(4)
- Effet anti-ulcère chez le rat (18 heures sous contrainte) % Ul-cération (rat; témoin 90): 50%
- REPONSE CO Durée [6, 11]: 120 min
- REPONSE CO Mesure à [6, 11]: 30 min
- REPONSE CO Pic [6, 11]: 30 min
- REPONSE CO Durée ([6]; 100 mg par voie intraveineuse): 45 min
- REPONSE CO Mesure à ([6]; 100 mg par voie intraveineuse): 1 min
- REPONSE CO Pic ([6]; 100 mg par voie intraveineuse): 1 min
- Temps de sommeil au pentobarbital % du témoin (témoin =100) (souris [7]; [12]): 140 % du témoin
- Temps de sommeil au pentobarbital % du témoin (témoin =100) (souris [7]; 100 mg/kg (ip), 30 min): 114 % du témoin
- Temps de sommeil au pentobarbital % du témoin (témoin =100) (souris [7]; 100 mg/kg (ip), 60 min): 103 % du témoin
- Temps de sommeil au pentobarbital % du témoin (témoin =100) (souris [7]; 174 mg/kg (ip), 15 min): 93 % du témoin
- Temps de sommeil au pentobarbital % du témoin (témoin =100) (souris [7]; 174 mg/kg (ip), 30 min): 95 % du témoin
- Temps de sommeil au pentobarbital % du témoin (témoin =100) (souris [7]; 174 mg/kg (ip), 60 min): 91 % du témoin
- Essai à la tige Rotarod: Défaut de coordination musculaire observé (Nbre de souris) (souris [8]; 100 mg/kg (ip), 15 min): 0/5
- Essai à la tige Rotarod: Défaut de coordination musculaire observé (Nbre de souris) (souris [8]; 100 mg/kg (ip), 30 min): 0/5
- Essai à la tige Rotarod: Défaut de coordination musculaire observé (Nbre de souris) (souris [8]; 100 mg/kg (ip), 60 min): 0/5
- Essai à la tige Rotarod: Défaut de coordination musculaire observé (Nbre de souris) (souris [8]; 174 mg/kg (ip), 15 min): 0/5
- Essai à la tige Rotarod: Défaut de coordination musculaire observé (Nbre de souris) (souris [8]; 174 mg/kg (ip), 30 min): 0/5
- Essai à la tige Rotarod: Défaut de coordination musculaire observé (Nbre de souris) (souris [8]; 174 mg/kg (ip), 60 min): 0/5
- Performance à l'essai Rotarod Moyenne (Sec) (souris [8]; 174 mg/kg i.p., témoin 11,3 ± 3,1): 16,4 ± 2,4 (30) Sec
- Score total (tremblements) (souris [9]; 150 mg/kg S.C. (mole for mole 75 mg/kg of 5 HTP)): 0
- Score total (tremblements) (souris [9]; 500 mg/kg S.C.): 0
- activité dans l'essai des tremblements (souris [9]; souris pretreated with Harmaline, overall statement): inactif
- Activité anticon-vulsivante MES % protection (souris [10]; [12]): 0%
- Activité anticon-vulsivante MES % protection (souris [10]; 100 mg/kg (ip), 30 min): 0%
- Activité anticon-vulsivante MES % protection (souris [10]; 100 mg/kg (ip), 60 min): 0%
- Activité anticon-vulsivante MES % protection (souris [10]; 174 mg/kg (ip), 15 min): 20%
- Activité anticon-vulsivante MES % protection (souris [10]; 174 mg/kg (ip), 30 min): 20%
- Activité anticon-vulsivante MES % protection (souris [10]; 174 mg/kg (ip), 60 min): 0%
